Experimental data reported in US7767671B2, “3-Quinolinecarbonitrile protein kinase inhibitors” (Wyeth, priority 2004, dated 2010).

What was measured:
[1] = biological target: T1, Raf and/or Mek kinase (human c-Raf, GST-MEK1) (Homo sapiens, UniProt P04049+Q02750); assay: Raf/Mek kinase cascade assay; format: biochemical; details: c-Raf dependent activation of GST-MEK and GST-MAPK, phospho-MAPK ELISA; (a)/(b)/(c) = average of two/three/four runs
T1 construct: Sf9 insect cell lysate containing full length 6his-tagged recombinant human c-Raf; 6His; host or cells: Sf9 insect cells (c-Raf, used as lysate); E. coli (MEK1-GST, GST-MAPK)
T1 sequence (P04049 whole entry): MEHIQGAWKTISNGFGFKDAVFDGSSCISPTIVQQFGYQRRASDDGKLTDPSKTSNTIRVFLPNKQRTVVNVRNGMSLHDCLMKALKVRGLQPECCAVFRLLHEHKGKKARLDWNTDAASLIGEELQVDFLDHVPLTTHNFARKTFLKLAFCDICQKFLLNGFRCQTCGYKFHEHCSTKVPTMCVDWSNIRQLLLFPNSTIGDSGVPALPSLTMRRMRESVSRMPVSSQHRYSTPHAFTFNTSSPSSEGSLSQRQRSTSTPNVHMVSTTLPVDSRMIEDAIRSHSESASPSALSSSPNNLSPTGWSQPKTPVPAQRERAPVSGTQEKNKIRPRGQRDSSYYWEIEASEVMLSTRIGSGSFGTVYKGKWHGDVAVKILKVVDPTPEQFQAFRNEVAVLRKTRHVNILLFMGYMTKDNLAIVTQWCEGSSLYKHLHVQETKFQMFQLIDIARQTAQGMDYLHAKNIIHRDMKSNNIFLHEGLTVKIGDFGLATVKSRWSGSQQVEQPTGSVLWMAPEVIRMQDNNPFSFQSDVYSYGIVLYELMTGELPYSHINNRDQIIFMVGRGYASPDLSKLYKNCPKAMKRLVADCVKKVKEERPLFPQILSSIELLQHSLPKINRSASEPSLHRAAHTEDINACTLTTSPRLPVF
T1 sequence (Q02750 whole entry): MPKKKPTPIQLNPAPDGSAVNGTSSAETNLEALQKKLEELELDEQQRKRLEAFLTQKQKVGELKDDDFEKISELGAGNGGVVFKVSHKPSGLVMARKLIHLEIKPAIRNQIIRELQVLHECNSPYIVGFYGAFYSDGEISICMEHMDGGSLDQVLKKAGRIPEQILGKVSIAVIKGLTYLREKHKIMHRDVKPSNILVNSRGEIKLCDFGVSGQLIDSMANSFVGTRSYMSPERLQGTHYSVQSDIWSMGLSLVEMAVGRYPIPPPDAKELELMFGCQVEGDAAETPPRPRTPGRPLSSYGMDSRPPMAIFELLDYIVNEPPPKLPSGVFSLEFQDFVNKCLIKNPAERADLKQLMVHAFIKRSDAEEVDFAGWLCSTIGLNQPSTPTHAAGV
How it was run: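 Cascade run with c-Raf (0.4 U) activating non-active GST-MEK1 and GST-p42 MAPK in MOPS pH 7.2 buffer with ATP/MgCl2, 60 min at 30 °C. Phospho-MAPK captured on anti-GST plates and read with anti-phospho-MAPK and europium-conjugated secondary antibody. Single-point % inhibition at […]; IC50 over 10 µM–1 nM half-log dilutions.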

LoVo = assay: Cell based screen for inhibitors of Raf and/or Mek kinase (SRB), LoVo; parameters: species or system human; details: Homo sapiens, 96 h, LoVo cells, four days incubation, (a)/(b)/(c) = average of two/three/five runs
Procedure: Cell Based Screen for Inhibitors of Raf and/or Mek Kinase. Materials
Cell Lines: Human adenocarcinoma cell line LoVo, known to be growth inhibited by low nM concentrations of a reference standard inhibitor of Ras and human adenocarcinoma cell line CaCo-2, known to be growth resistant to the same reference compound.
Cell Media: RPMI 1640 with 10% Fetal Bovine Serum supplemented with L-glutamine and Penicillin/Streptomycin.
Cells are plated at 2000 cells per well for cell line LoVo and 1500 cells for cell line CaCo-2 in 96 well plates. Cells are plated in media (200 μl) and allowed to adhere overnight at 37° C. At 24 hours post plating, compounds are added directly at a volume of 0.5 μl. For the qualitative screen (compounds screened at 25 μM) compound is added directly to cells. For the quantitative screen, compound is first diluted in DMSO to generate concentrations of compound or reference standard of: 1, 5, 10 and 25 μM. It is advisable to make the dilutions in an identical 96 well plate so that compounds can be added using a multichannel micropipettor set at 0.5 μl. The cells are then incubated for four days after which the media is removed using a 12 well manifold by first tipping the plate forward at a 45 degree angle and then inserting the manifold in an upright orientation to prevent the tips of the manifold from disturbing cells at the bottom of the plate. 200 μl of normal saline is then added to each well using an 8 well multichannel pipettor, followed by the careful addition of 50 μl of 50% TCA. The plates are then incubated for 2 hours at 4° C., after which the supernatant is removed using the same technique as above and the plated cells are washed twice with 200 μl water. The plates are then air dried and 50 μl of SRB stock solution is carefully added so that the entire bottom of each well is covered. This again can be done using an 8 well multichannel pipettor. The SRB is incubated with fixed cells for 15 minutes at room temperature after which the SRB is removed with the manifold as described above and the plates washed twice with 350 μl of 1% acetic acid per well each time. The plates are then air dried after which the bound SRB is released from protein by the addition of 200 μl of Tris base. Resolubilizing the SRB is aided by placing the plates on a rotator for 15-30 minutes. The absorbance of each well is determined at 550 or 562 nm using a microtiter plate reader.
Each compound or dilution thereof is performed in triplicate. Outliers are identified by visual inspection of the data. Each plate should have a “0” control (vehicle only).
Quantitative Assay: A standard curve is constructed by plotting the concentration of compound against the average absorbance calculated at that concentration. A curve is plotted and the concentration at which the curve passes through the 50% the absorbance mark seen in the “0” control well is the IC50 calculated for that compound. Multiple entries for a given compound indicate that it is tested multiple times.

COc1cc2c(Nc3ccc(Oc4ccccc4)cc3)c(C#N)cnc2cc1OCCN1CCC(N2CCCCC2)CC1 [Example 32, 7-(2-[1,4′]Bipiperidinyl-1′-yl-ethoxy)-6-methoxy-4-(4-phenoxy-phenylamino)-quinoline-3-carbonitrile]
IC50 [1]: 20 nM
melting point: 141 °C (dec.)
IC50 (LoVo): 900 nM
